Like-named read-outs stand apart in the source and are kept apart here.
Columns and labels:
Test in all cases: Test C pre-/postemergence greenhouse test, plant response rating 0-100
Format in all cases: in vivo
[1] = system: giant foxtail (Setaria faberii); conditions: Setaria faberi; for pest or weed control at 250 g/ha: 250 g ai/ha; for pest or weed control at 500 g/ha: 500 g ai/ha
Summary of the method: (§1)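 Visual rating vs controls after 13–15 d greenhouse; 0 = no effect, 100 = complete control. Pre: seeds in loam/sand, treated at planting. Post: seedlings 2–18 cm (1–4 leaf) in peat-based mix. Compounds in surfactant-containing non-phytotoxic solvent.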

[2] = system: lambsquarters (Chenopodium album); conditions: Chenopodium album; for pest or weed control at 62 g/ha: 62 g ai/ha; for pest or weed control at 125 g/ha: 125 g ai/ha; for pest or weed control at 250 g/ha: 250 g ai/ha; for pest or weed control at 500 g/ha: 500 g ai/ha
Summary of the method: as §1

[3] = system: winter wheat (Triticum aestivum); conditions: Triticum aestivum; for plant injury at 62 g/ha: 62 g ai/ha; for plant injury at 125 g/ha: 125 g ai/ha; for plant injury at 250 g/ha: 250 g ai/ha; for plant injury at 500 g/ha: 500 g ai/ha
Summary of the method: as §1

[4] = system: blackgrass (Alopecurus myosuroides); conditions: Alopecurus myosuroides; for pest or weed control at 62 g/ha: 62 g ai/ha; for pest or weed control at 125 g/ha: 125 g ai/ha; for pest or weed control at 250 g/ha: 250 g ai/ha; for pest or weed control at 500 g/ha: 500 g ai/ha
Summary of the method: as §1

corn (Zea mays) = conditions: Zea mays; for Corn plant response rating (crop injury, 0 = no effect, 100 = complete kill) at 250 g/ha: 250 g ai/ha; for Corn plant response rating (crop injury, 0 = no effect, 100 = complete kill) at 500 g/ha: 500 g ai/ha
Summary of the method: as §1

[5] = system: johnsongrass (Sorghum halepense); conditions: Sorghum halepense; for pest or weed control at 62 g/ha: 62 g ai/ha; for pest or weed control at 125 g/ha: 125 g ai/ha; for pest or weed control at 250 g/ha: 250 g ai/ha; for pest or weed control at 500 g/ha: 500 g ai/ha
Summary of the method: as §1

[6] = post-emergence, Postemergence, scale 0 to 100
[7] = post-emergence, Postemergence, read-out: Plant response rating (0 to 100), Lambsquarters
[8] = pre-emergence, Preemergence, read-out: Plant response rating, Lambsquarters
[9] = post-emergence, Postemergence, read-out: Plant response rating (0 to 100), Wheat
[10] = pre-emergence, Preemergence, read-out: Plant response rating, Wheat
[11] = pre-emergence, Preemergence, read-out: Plant response rating, Blackgrass
[12] = post-emergence, Postemergence, read-out: Plant response rating (0 to 100), Johnsongrass
[13] = pre-emergence, Preemergence, read-out: Plant response rating, Johnsongrass

## COC(OC)(c1ccccc1)c1c[nH]nc1-c1cc(Cl)cc(Cl)c1 [Compound 13, 3-(3,5-dichlorophenyl)-4-(dimethoxyphenylmethyl)-1H-pyrazole]
[1]; [6]
  pest or weed control at 250 g/ha: 0%
  pest or weed control at 500 g/ha: 0%
[1]; pre-emergence, Preemergence, 62 g ai/ha, read-out: Plant response rating, Foxtail, Giant
  pest or weed control at 62 g/ha: 0%
[1]; pre-emergence, Preemergence, 125 g ai/ha, read-out: Plant response rating, Foxtail, Giant
  pest or weed control at 125 g/ha: 0%
[1]; pre-emergence, Preemergence
  pest or weed control at 250 g/ha: 0%
  pest or weed control at 500 g/ha: 0%
[2]; [7]
  pest or weed control at 62 g/ha: 75%
  pest or weed control at 125 g/ha: 80%
[2]; [6]
  pest or weed control at 250 g/ha: 98%
  pest or weed control at 500 g/ha: 98%
[2]; [8]
  pest or weed control at 62 g/ha: 100%
  pest or weed control at 125 g/ha: 100%
[2]; pre-emergence, Preemergence
  pest or weed control at 250 g/ha: 100%
  pest or weed control at 500 g/ha: 100%
[3]; [9]
  plant injury at 62 g/ha: 0%
  plant injury at 125 g/ha: 0%
[3]; [6]
  plant injury at 250 g/ha: 0%
  plant injury at 500 g/ha: 0%
[3]; [10]
  plant injury at 62 g/ha: 0%
  plant injury at 125 g/ha: 0%
[3]; pre-emergence, Preemergence
  plant injury at 250 g/ha: 0%
  plant injury at 500 g/ha: 0%
[4]; post-emergence, Postemergence, read-out: Plant response rating (0 to 100), Blackgrass
  pest or weed control at 62 g/ha: 5%
[4]; post-emergence, Postemergence, scale 0 to 100, read-out: Plant response rating, Blackgrass
  pest or weed control at 125 g/ha: 0%
[4]; [6]
  pest or weed control at 250 g/ha: 0%
  pest or weed control at 500 g/ha: 0%
[4]; [11]
  pest or weed control at 62 g/ha: 10%
  pest or weed control at 125 g/ha: 10%
[4]; pre-emergence, Preemergence
  pest or weed control at 250 g/ha: 50%
  pest or weed control at 500 g/ha: 40%
Corn (Zea mays); post-emergence, Postemergence, 62 g ai/ha
  plant injury at 62 g/ha: 0%
Corn (Zea mays); post-emergence, Postemergence, 125 g ai/ha
  plant injury at 125 g/ha: 0%
Corn (Zea mays); [6]
  Corn plant response rating (crop injury, 0 = no effect, 100 = complete kill) at 250 g/ha: 0%
  Corn plant response rating (crop injury, 0 = no effect, 100 = complete kill) at 500 g/ha: 0%
Corn (Zea mays); pre-emergence, Preemergence, 62 g ai/ha
  Corn plant response rating (crop injury, 0 = no effect, 100 = complete kill) at 62 g/ha: 0%
Corn (Zea mays); pre-emergence, Preemergence, 125 g ai/ha
  Corn plant response rating (crop injury, 0 = no effect, 100 = complete kill) at 125 g/ha: 0%
Corn (Zea mays); pre-emergence, Preemergence
  Corn plant response rating (crop injury, 0 = no effect, 100 = complete kill) at 250 g/ha: 0%
  Corn plant response rating (crop injury, 0 = no effect, 100 = complete kill) at 500 g/ha: 0%
[5]; [12]
  pest or weed control at 62 g/ha: 0%
  pest or weed control at 125 g/ha: 0%
[5]; [6]
  pest or weed control at 250 g/ha: 0%
  pest or weed control at 500 g/ha: 0%
[5]; [13]
  pest or weed control at 62 g/ha: 0%
  pest or weed control at 125 g/ha: 0%
[5]; pre-emergence, Preemergence
  pest or weed control at 250 g/ha: 0%
  pest or weed control at 500 g/ha: 0%

— patent publication US10167262B2, “Herbicidal substituted 3-arylpyrazoles” (FMC CORPORATION, priority 2014, dated 2019)
